These are literature values, as cited in US20170258746A1, “ACETIC ACID/THYMOL COMPOSITIONS AND THEIR USE IN THE TREATMENT OF ONYCHOMYCOSIS” (Dr. Paul's Enterprises, LLC, priority 2008, published 2017).

For data set [1] the following is noted: oral, in children; American Family Physician vol. 63, no. 4, Feb. 15, 2001.
A further data set concerns onychomycosis. As to conditions: oral, Arch. Dermatol. 134(12) (December 1998).

Turning to `COC1=CC(=O)C[C@@H](C)[C@]12Oc1c(Cl)c(OC)cc(OC)c1C2=O` [griseofulvin], the toxicity result in data set [1] is recorded as “some level of toxicity”.

Regarding `CN(C/C=C/C#CC(C)(C)C)Cc1cccc2ccccc12` [terbinafine], the “disease-free nail, % of patients” value in the data set on onychomycosis was 35-50%.
